Where a chain is given by its changes, count along the chain named.
How the values were obtained:
[1] = biological target: T1, bFFA2 (Bos taurus, UniProt A0ACM8QIU6); assay: beta-arrestin-2 BRET recruitment; assay type: cell-based
T1 sequence (A0ACM8QIU6 1-329): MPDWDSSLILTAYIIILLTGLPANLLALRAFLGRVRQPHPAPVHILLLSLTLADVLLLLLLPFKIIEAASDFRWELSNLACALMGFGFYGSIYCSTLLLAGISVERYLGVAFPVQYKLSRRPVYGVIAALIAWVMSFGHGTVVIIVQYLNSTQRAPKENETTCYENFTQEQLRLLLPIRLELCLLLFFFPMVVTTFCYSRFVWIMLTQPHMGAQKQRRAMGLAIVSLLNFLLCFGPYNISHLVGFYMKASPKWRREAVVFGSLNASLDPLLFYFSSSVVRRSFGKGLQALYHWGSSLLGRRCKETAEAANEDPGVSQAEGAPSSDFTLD

[2] = biological target: T2, bFFA3 (Bos taurus, UniProt A0ACM8QIV1); assay: […]GTPγS incorporation, membranes; assay type: biochemical
T2 sequence (A0ACM8QIV1 1-326): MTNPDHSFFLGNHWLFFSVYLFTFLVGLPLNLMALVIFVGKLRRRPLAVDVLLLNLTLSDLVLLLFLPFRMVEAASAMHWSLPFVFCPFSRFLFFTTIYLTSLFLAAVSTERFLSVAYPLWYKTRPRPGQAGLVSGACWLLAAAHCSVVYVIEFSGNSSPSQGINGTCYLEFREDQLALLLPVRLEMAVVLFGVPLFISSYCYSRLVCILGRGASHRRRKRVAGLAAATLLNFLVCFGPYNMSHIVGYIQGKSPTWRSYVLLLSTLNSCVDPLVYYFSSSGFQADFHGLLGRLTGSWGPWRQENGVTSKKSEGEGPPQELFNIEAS

[3] = biological target: T3, hFFA2 (Homo sapiens, UniProt O15552); assay: beta-arrestin-2 BRET recruitment; assay type: cell-based
T3 sequence (O15552 1-330): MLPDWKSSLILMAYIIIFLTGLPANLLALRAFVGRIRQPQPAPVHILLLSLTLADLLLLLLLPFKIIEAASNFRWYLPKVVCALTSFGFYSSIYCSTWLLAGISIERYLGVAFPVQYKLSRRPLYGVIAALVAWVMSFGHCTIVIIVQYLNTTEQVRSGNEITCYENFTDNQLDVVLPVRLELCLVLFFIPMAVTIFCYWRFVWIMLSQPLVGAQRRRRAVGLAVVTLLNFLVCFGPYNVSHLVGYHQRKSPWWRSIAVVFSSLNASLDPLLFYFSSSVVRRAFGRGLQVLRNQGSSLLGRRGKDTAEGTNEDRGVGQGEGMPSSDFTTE

[4] = biological target: T4, hFFA3 (Homo sapiens, UniProt O14843); assay: […]GTPγS incorporation, membranes; assay type: biochemical
T4 sequence (O14843 1-346): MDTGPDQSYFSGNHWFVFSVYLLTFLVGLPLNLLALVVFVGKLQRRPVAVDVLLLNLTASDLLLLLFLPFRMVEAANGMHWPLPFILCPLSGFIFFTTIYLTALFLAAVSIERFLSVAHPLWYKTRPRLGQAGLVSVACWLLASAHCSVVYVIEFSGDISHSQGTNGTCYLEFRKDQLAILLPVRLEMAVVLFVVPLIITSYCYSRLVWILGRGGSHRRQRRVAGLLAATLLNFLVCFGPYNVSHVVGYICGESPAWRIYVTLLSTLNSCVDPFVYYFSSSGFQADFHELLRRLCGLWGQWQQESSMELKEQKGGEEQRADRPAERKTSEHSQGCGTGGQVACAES

[5] = biological target: T5, hFFA2 (Homo sapiens, UniProt O15552, C141G); assay: beta-arrestin-2 BRET recruitment; assay type: cell-based
T5 sequence (O15552 1-330 C141G): T3 sequence (O15552 1-330) with C141G

[6] = biological target: T6, hFFA2 (Homo sapiens, UniProt O15552, C141G/H242Q); assay: […]GTPγS incorporation, membranes; assay type: biochemical
T6 sequence (O15552 1-330 C141G/H242Q): T3 sequence (O15552 1-330) with C141G, H242Q

SMILES | EC50 [1] | EC50 [2] | EC50 [3] | EC50 [4] | EC50 [5] | EC50 [6]
CC/C=C/C(=O)O [compound 22, trans-2-pentenoic acid] | 5.25 µM | – | – | – | 33.1 µM | –
CCC/C=C/C(=O)O [compound 23, trans-2-hexenoic acid] | 3.98 µM | – | > 10000 µM | – | 3.24 µM | –
C=CC=CC(=O)O [compound 24, 2,4-pentadienoic acid] | 10 µM | – | – | – | 22.9 µM | –
C/C=C/C=C/C(=O)O [compound 25, 2,4-hexadienoic acid] | 4.27 µM | – | > 10000 µM | – | 4.57 µM | 3.47 µM
CC(=CC(=O)O)C(F)(F)F [compound 26, 4,4,4-trifluoro-3-methyl-2-butenoic acid] | 12.9 µM | – | > 10000 µM | – | 257 µM | –
O=C(O)C1=CCCC1 [compound 27, 1-cyclopentenecarboxylic acid] | 11 µM | – | > 10000 µM | – | 83.2 µM | –
O=C(O)/C=C/c1ccccc1 [compound 28, trans-cinnamic acid] | 174 µM | – | > 10000 µM | – | 389 µM | –
O=C(O)C1=CCCCC1 [compound 29, 1-cyclohexene-1-carboxylic acid] | 60.3 µM | – | > 10000 µM | – | 158 µM | –

Results, then the compound that gave them:

EC50 [1] | EC50 [2] | EC50 [3] | EC50 [4] | EC50 [5] | EC50 [6] | SMILES
> 10000 µM | > 10000 µM | 2510 µM | > 10000 µM | – | – | O=CO [C1, formic acid]
2040 µM | 4370 µM | 1000 µM | 7590 µM | – | – | CC(=O)O [C2, acetic acid]
347 ± 7.01 µM | 155 µM | – | 200 µM | – | – | CCC(=O)O [C3, propionic acid]
69.2 µM | 263 µM | 1480 µM | 251 µM | – | – | CCCC(=O)O [C4, butyric acid]
42.7 µM | 123 µM | 7080 µM | 36.3 µM | – | – | CCCCC(=O)O [C5, valeric acid]
20.9 µM | 126 µM | > 10000 µM | 204 µM | 24 µM | – | CCCCCC(=O)O [C6, caproic acid]
155 µM | 158 µM | > 10000 µM | 69.2 µM | 105 µM | – | CCCCCCC(=O)O [C7, heptanoic acid]
617 µM | > 10000 µM | > 10000 µM | > 10000 µM | 1070 µM | – | CCCCCCCC(=O)O [C8, caprylic acid]
3390 µM | > 10000 µM | > 10000 µM | > 10000 µM | – | – | CCCCCCCCC(=O)O [C9, pelargonic acid]

Source: paper PMC3509056 (The FASEB Journal, 2012)
